Source: ChEMBL document CHEMBL1697781, “Assessment of the health effects of chemicals in humans: II. Construction of an adverse effects database for QSAR modeling” (Curr Drug Discov Technol, 2004)

How the values were obtained:
Conditions in all cases: human; call rule not given here
[1] = test system: Hepatotoxicity; test: FDA HLAED, liver enzyme composite activity
[2] = test system: Hepatotoxicity; test: FDA HLAED, alkaline phosphatase increase
[3] = test system: Hepatotoxicity; test: FDA HLAED, serum glutamic oxaloacetic transaminase (SGOT) increase
[4] = test system: Hepatotoxicity; test: FDA HLAED, serum glutamic pyruvic transaminase (SGPT) increase
[5] = test system: Hepatotoxicity; test: FDA HLAED, lactate dehydrogenase (LDH) increase
[6] = test system: Hepatotoxicity; test: FDA HLAED, gamma-glutamyl transferase (GGT) increase
Wherever GGT Increase - Index Value is given: reference of the scale not given here.
Wherever LDH Increase - Index Value is given: reference of the scale not given here.

Row | Structure (SMILES) | Composite Activity - Active [1] | Composite Activity - Marginal [1] | Composite Activity - Score [1] | Alkaline Phosphatase Increase - Activity Score [2] | Alkaline Phosphatase Increase - Index Value [2] | Alkaline Phosphatase Increase - Number of Reports [2] | SGOT Increase - Activity Score [3] | SGOT Increase - Index Value [3] | SGOT Increase - Number of Reports [3] | SGPT Increase - Activity Score [4] | SGPT Increase - Index Value [4] | SGPT Increase - Number of Reports [4] | LDH Increase - Activity Score [5] | LDH Increase - Index Value [5] | LDH Increase - Number of Reports [5] | GGT Increase - Activity Score [6] | GGT Increase - Index Value [6] | GGT Increase - Number of Reports [6]
1 | O=c1[nH]c(=O)n([C@H]2C[C@H](O)[C@@H](CO)O2)cc1C(F)(F)F [TRIFLURIDINE] | 0 | 0 | Inactive | Inactive | 0 | < 4 | Inactive | 0 | < 4 | Inactive | 0 | < 4 | Inactive | 0 | < 4 | Inactive | 0 | < 4
2 | CN1C(=O)OC(C)(C)C1=O [TRIMETHADIONE] | 2 | 3 | Active | Active | No Shipping Units | >= 4 | Active | No Shipping Units | >= 4 | Marginally Active | No Shipping Units | >= 4 | Marginally Active | No Shipping Units | >= 4 | Marginally Active | No Shipping Units | >= 4
3 | COc1cc(NCc2ccc3nc(N)nc(N)c3c2C)cc(OC)c1OC [TRIMETREXATE] | 1 | 0 | Inactive | Inactive | 38.8 | < 4 | Active | 77.5 | < 4 | Inactive | 38.8 | < 4 | Inactive | 38.8 | < 4 | Inactive | 0 | < 4
4 | CC(CN(C)C)CN1c2ccccc2CCc2ccccc21 (configuration not stated) [TRIMIPRAMINE] | 0 | 0 | Inactive | Inactive | 0 | < 4 | Inactive | 0 | < 4 | Inactive | 0 | < 4 | Inactive | 0 | < 4 | Inactive | 0 | < 4
5 | C[C@H](CCC(=O)O)[C@H]1CC[C@H]2[C@@H]3[C@@H](O)C[C@@H]4C[C@H](O)CC[C@]4(C)[C@H]3CC[C@]12C [URSODIOL] | 2 | 0 | Active | Active | 14.5 | >= 4 | Active | 9.7 | >= 4 | Inactive | 4.8 | < 4 | Inactive | 4.8 | < 4 | Inactive | 4.8 | < 4
6 | CC(C)[C@H](N)C(=O)OCCOCn1cnc2c(=O)[nH]c(N)nc21 [VALACYCLOVIR] | 0 | 0 | Inactive | Inactive | No Shipping Units | < 4 | Inactive | No Shipping Units | < 4 | Inactive | No Shipping Units | < 4 | Inactive | 0 | < 4 | Inactive | 0 | < 4
7 | CC(=O)O[C@H]1C[C@@H]2CC[C@@H]3[C@H](CC[C@@]4(C)[C@H]3C[C@H]([N+]3(C)CCCCC3)[C@@H]4OC(C)=O)[C@@]2(C)C[C@@H]1N1CCCCC1.[Br-] [VECURONIUM BROMIDE] | 0 | 0 | Inactive | Inactive | 0 | < 4 | Inactive | 1 | < 4 | Inactive | 1 | < 4 | Inactive | 1 | < 4 | Inactive | 0 | < 4
8 | COc1ccc(C(CN(C)C)C2(O)CCCCC2)cc1 (configuration not stated) [VENLAFAXINE] | 0 | 0 | Inactive | Inactive | 1.3 | >= 4 | Inactive | 2.7 | >= 4 | Inactive | 2.3 | >= 4 | Inactive | 0.7 | >= 4 | Inactive | 0.9 | >= 4
9 | CCC1=C[C@@H]2CN(C1)Cc1c([nH]c3ccccc13)[C@@](C(=O)OC)(c1cc3c(cc1OC)N(C)[C@H]1[C@@](O)(C(=O)OC)[C@H](OC(C)=O)[C@]4(CC)C=CCN5CC[C@]31[C@@H]54)C2 [VINORELBINE] | 1 | 0 | Inactive | Inactive | 2.8 | < 4 | Inactive | 0.9 | < 4 | Inactive | 1.9 | < 4 | Active | 4.7 | >= 4 | Inactive | 0.9 | < 4
